Measurements from patent publication US20080103209A1, “Compounds And Methods For Treating Non-Inflammatory Pain Using Ppar Alpha Agonists” (The Regents of The University of California, priority 2004, published 2008).

Experiments:
[1] = tested on: PKA-IIα regulatory subunit phosphorylation on Ser^96; test: Immunoblot of lumbar spinal cord extracts, phosphorylated PKA regulatory subunit; format: in vivo, mouse; conditions: neuropathic mice, PEA 30 mg-kg^−1 s.c. once daily for two weeks
Procedure: (§1) Opiate analgesics have a high liability to produce tolerance, a progressive loss of pharmacological activity caused by repeated drug administrations (Waldhoer et al., Annu Rev Biochem, 73, 953 (2004)). To assess whether tolerance develops to the antihyperalgesic effects of PPARα agonists, PEA (30 mg-kg^−1, s.c.) was administered once a day for 14 consecutive days from the time of surgery, measuring mechanical and thermal hyperalgesia at day 7 and 14.
(§2) Immunoblot analysis. Lumbar spinal cord tissue was weighed, homogenized in Tris-HCl (20 mM, pH 7.5), 10 mM NaF, 150 mM NaCl, 1% Nonidet P-40, 1 mM PMSF, 1 mM Na3VO4, leupeptin and trypsin inhibitor (10 μg/ml). After 1 h, the tissue lysates were subjected to centrifugation ay 100,000×g for 15 min at 4° C. Protein concentrations were estimated using a Bio-Rad protein assay and bovine serum albumin as a standard. Equal amounts of protein (20 μg) were dissolved in Laemmli sample buffer, boiled for 5 min, subjected to sodium dodecyl sulphate-polyacrylamide gel electrophoresis (8% polyacrylamide) and transferred onto nitrocellulose membranes at 240 mA for 40 min at room temperature. […] The films were scanned and densitometrically analysed with a model GS-700 imaging densitometer.

PKAα catalytic subunit = test: Immunoblot of lumbar spinal cord extracts, PKAα catalytic subunit; format: in vivo, mouse; conditions: neuropathic mice, PEA 30 mg-kg^−1 s.c. once daily for two weeks; change not statistically significant
Procedure: as §1, §2

## CCCCCCCCCCCCCCCC(=O)NCCO [PEA, palmitoylethanolamide]
[1]
  phosphorylation of PKA-IIα regulatory subunit at Ser^96: reduced
PKAα catalytic subunit
  spinal tissue levels of PKA α catalytic subunit: slightly decreased
